Measurements as given in PubChem BioAssay AID844 (SRMLSC, 2007).
pEC50: −log10 of the molar value. The source made the active and inactive calls. The rule behind the calls is not given here.

Test system: MRP1 cells, doxorubicin viability shift, 10 uM compound
Assay: doxorubicin EC50 increase in MRP-1 cells, dose response, cell-based, doxorubicin EC50 shift (AID 844)
Conditions: for pEC50: measured here: doxorubicin EC50 with compound

SMILES | fold increase in Dox EC50 | pEC50
COc1ccc(Nc2nnc(Cc3ccc(Cl)cc3)c(=O)[nH]2)c(OC)c1 | 0.91 (inactive) | 5.31
O=C1CSC(=S)N1N=C1CCCCCC1 | 0.92 (inactive) | 5.30
c1ccc2c(-c3nc(C4CCCCC4)no3)cc(-c3ccncc3)nc2c1 | 0.62 (inactive) | 5.48
C=CCc1c(C)nc(-c2ccccc2)nc1N/N=C(\C)c1ccccc1 | 0.43 (inactive) | 5.63
Cc1nc(C)c(C(=O)NNS(=O)(=O)c2ccccc2)s1 | 0.83 (inactive) | 5.35
CN=c1scc(C)n1/N=C/c1ccc(O)c(O)c1O | 0.92 (inactive) | 5.31
Cn1c(=O)n(C/C=C/c2ccccc2)c(=O)c2c1nc1n2CCCN1c1ccc(F)cc1 | 0.76 (inactive) | 5.39
C/C(=N\NC(=O)c1ccc(Cn2cc([N+](=O)[O-])cn2)o1)c1cccc(NC(=O)c2cccnc2)c1 | 0.73 (inactive) | 5.41
O=c1cc(CN2CCN(c3cccc(Cl)c3)CC2)c2cc3c(cc2o1)CCCC3 | 0.74 (inactive) | 5.40
O=C(COc1ccc(Cl)cc1)N1CCN(S(=O)(=O)c2ccccc2)CC1 | 0.68 (inactive) | 5.43
COC(=O)/C(=C/Nc1ccc(O)cc1)[N+](=O)[O-] | 0.21 (inactive) | 5.95
CC(C)Cn1c2c(c(O)c(C(=O)Nc3ccc(F)cc3)c1=O)CCCC2 | 0.95 (inactive) | 5.29
CCOC(=O)C1=C(C)Nc2sc(C(=O)c3ccc(C)cc3)c(N)c2C1c1ccc(C(=O)OC)cc1 (stereo not given) | 0.36 (inactive) | 5.71
O=c1nc2s/c(=C\c3ccc(-c4ccccc4[N+](=O)[O-])o3)c(=O)n2nc1-c1ccccc1 | 1.43 (inactive) | 5.11
CCCn1c(C)cc(/C=C(\C#N)C(=O)OCC(=O)Nc2ccc(OC)c(Cl)c2)c1C | 0.7 (inactive) | 5.42
N#Cc1nc(COc2ccc(Br)cc2)oc1N1CCCCCC1 | 0.78 (inactive) | 5.38
Cn1c(=O)c2c(nc(CN3CCOCC3)n2CCc2ccccc2)n(C)c1=O | 0.31 (inactive) | 5.77
Cc1ccc(C)c(N2CCN(C(=O)Cc3ccc(-n4c(=O)[nH]c5ccsc5c4=O)cc3)CC2)c1 | 0.58 (inactive) | 5.51
Cc1cccc(C)c1-n1c(C)cc(/C=C2\C(=O)NN(c3ccccc3)C2=O)c1C | 0.63 (inactive) | 5.47
N=C(N)SCc1ccccn1 | 0.54 (inactive) | 5.54
O=C(NC(=S)Nc1nc(-c2ccccc2)cs1)c1cncc(Br)c1 | 0.99 (inactive) | 5.27
Cn1nccc1CNC(=O)c1ccnn1C | 0.66 (inactive) | 5.45
COc1ccc(N2C(S)=C(C#N)C(=O)NC2c2ccco2)cc1 (stereo not given) | 0.41 (inactive) | 5.66
CC(C)OC(=O)CSc1nnc2n1C(C)(C)Cc1ccccc1-2 | 0.82 (inactive) | 5.36
CNC(=S)Nc1ccc(C)cc1 | 0.67 (inactive) | 5.44
CCOC(=O)C1=C(C)Nc2sc(C(=O)c3ccc(OC)cc3)c(N)c2C1c1ccc(C(=O)OC)cc1 (stereo not given) | 0.2 (inactive) | 5.96
CC(=O)c1ccc(N2CCN(c3ccc(C(F)(F)F)cn3)CC2)cc1 | 0.56 (inactive) | 5.52
S=C(c1ccc(-c2ccccc2Cl)o1)N1CCCCC1 | 0.85 (inactive) | 5.34
CCOC(=O)c1cc(-c2ccccc2)sc1NC(=O)C(C)Sc1nnc(C)s1 (stereo not given) | 0.53 (inactive) | 5.54
COc1cc(S(=O)(=O)Nc2cccc(C)c2)ccc1NC(=O)c1ccncc1 | 0.6 (inactive) | 5.49
